Consider ten molecules from US8354434B2, “Cyclourea compounds as calcium channel blockers” (Purdue Pharma L.P., priority 2006, dated 2013).

A value given as a limit tells only on which side of the number the result lay.

For assay [1], the target named is T1, N-type calcium channel (NTCC) (Homo sapiens, UniProt Q00975).
T1 construct: endogenous in cells; host or cells: IMR32 cells (ATCC), differentiated 8 days with dibutyryl cAMP and bromodeoxyuridine
As to the kind of experiment: FLIPR calcium mobilization assay for N-type calcium channel. The class given is cell-based. Conditions: calcium mobilization in vitro assay, differentiated IMR32 cells. The method, then: Cell maintenance and differentiation. Unless noted otherwise, cell culture reagents were purchased from Life Technologies of Rockville, Md. IMR32 cells (American Type Culture Collection, ATCC, Manassas, Va.) were routinely cultured in growth medium consisting of minimum essential medium containing 10% fetal bovine serum (FBS, Hyclone, Logan, Utah), 100 U/mL penicillin, 100 μg/mL streptomycin, 2 mM L-glutamine, 1 mM sodium pyruvate, and 1×MEM non-essential amino acids. 80-90% confluent flasks of cells were differentiated using the following differentiation medium: Growth medium plus 1 mM dibutyryl cyclic AMP (Sigma, St. Louis, Mo.), and 2.5 μM bromodeoxyuridine (Sigma). Cells were differentiated for 8 days by replacing differentiation medium every 2-3 days.
FLIPR Calcium Mobilization Assay for N-type Calcium Channel. One day prior to performing this assay, differentiated IMR32 cells were treated with 1×CellStripper, and seeded on poly-D-lysine-coated 96-well clear-bottom black plates (Becton Dickinson, Franklin Lakes, N.J.) at 200,000 cells/well. On the day of the assay, the cell plates were washed with IMR32 buffer (127 mM NaCl, 1 mM KCl, 2 mM MgCl2, 700 μM NaH2PO4, 5 mM CaCl2, 5 mM NaHCO3, 8 mM HEPES, 10 mM glucose, pH 7.4), then pre-stimulated with KCl and loaded as follows: 0.05 mL of IMR32 buffer, 0.05 mL of each compound tested diluted in IMR32 buffer containing 20 μM nitrendipine (Sigma), and 0.1 mL KCl dissolved in IMR32 buffer, plus Fluo-4 were added (3 μM final concentration, Molecular Probes, Eugene, Oreg.). Final test compound concentrations ranged from about 846 μM to about 17 μM, final nitrendipine concentration was 5 μM, and final KCl concentration was 90 mM. After 1 hour, the cells were washed twice with 0.05 mL of each compound tested in nitrendipine-containing IMR32 buffer (no KCl or Fluo-4), and then replaced with 0.1 mL of each compound tested in nitrendipine-containing IMR32 buffer. Plates were then transferred to a Fluorimetric Imaging Plate Reader (FLIPR^96, Molecular Devices, Inc., Sunnyvale, Calif.) for assay. The FLIPR measured basal Fluo-4 fluorescence for 315 seconds (i.e., 5 minutes and 15 seconds), then added 0.1 mL KCl agonist dissolved in IMR32 buffer and measured fluorescence for another 45 seconds. Final test compound concentrations on the cells after FLIPR read ranged from about 846 μM to about 17 μM, final nitrendipine concentration was 5 μM, and final KCl concentration was 90 mM. Data were collected over the entire time course and analyzed using Excel, Graph Pad Prism (version 3.02, Graph Pad, San Diego, Calif.), or Activity Base (version 5.1, IDBS, Parsippany, N.J.) software.
Background: Calcium assays in cells follow changes in intracellular calcium, usually with a dye or a luminescent sensor.

In assay [2] the target is T2, L-type calcium channel (LTCC) (Rattus norvegicus, UniProt P22002).
T2 construct: differentiated A7r5 cells were trypsinized, then seeded on tissue culture treated 96-well clear-bottom black plates; endogenous in cells; host or cells: A7r5 cells (ATCC), differentiated 8 days with dibutyryl cAMP
As to the kind of experiment: FLIPR calcium mobilization assay for L-type calcium channel. The class given is cell-based. As to conditions: calcium mobilization in vitro assay, differentiated A7r5 cells. The method, then:
A7r5 (ATCC) cells were maintained and routinely cultured in A7r5 growth medium consisting of Dulbecco's Modified Eagles Medium containing 10% FBS, 100 U/mL penicillin, 100 μg/mL streptomycin, 4 mM L-glutamine, and 0.15% sodium bicarbonate. 80-90% confluent flasks of cells were differentiated using the following differentiation medium: A7r5 Growth Medium plus 1 mM dibutyryl cyclic AMP (Sigma). Cells were differentiated for 8 days by replacing differentiation medium every 2-3 days.
FLIPR Calcium Mobilization Assay for L-type Calcium Channel. One day prior to performing this assay, differentiated A7r5 cells were trypsinized, then seeded on tissue culture treated 96-well clear-bottom black plates (Becton Dickinson, Franklin Lakes, N.J.) at a dilution of 1:1 from a confluent T150 cm^2 flask. On the day of the assay, the plates were washed with A7r5 wash buffer (127 mM NaCl, 2 mM MgCl2, 700 μM NaH2PO4, 5 mM CaCl2, 5 mM NaHCO3, 8 mM HEPES, 10 mM glucose, pH 7.4), then loaded with 0.1 mL of A7r5 wash buffer containing Fluo-4 (3 μM final concentration, Molecular Probes, Eugene, Oreg.). After 1 hour, the cells were washed with 0.1 mL A7r5 wash buffer and resuspended in 0.05 mL A7r5 assay buffer that was composed of A7r5 wash buffer plus 50 μM valinomycin (Sigma). Plates were then transferred to a FLIPR^96 for assay. The FLIPR measured basal Fluo-4 fluorescence for 15 seconds, then added 0.05 mL of each compound tested diluted in A7r5 assay buffer at final concentrations ranging from about […]. Fluo-4 fluorescence was then measured for 5 minutes. 0.1 mL KCl agonist dissolved in A7r5 assay buffer was then added to the cells to produce a final concentration of 90 mM KCl, and fluorescence was measured for another 45 seconds. Data were collected over the entire time course and analyzed using Excel, Graph Pad Prism, or Activity Base software.

T1 sequence (Q00975 whole entry): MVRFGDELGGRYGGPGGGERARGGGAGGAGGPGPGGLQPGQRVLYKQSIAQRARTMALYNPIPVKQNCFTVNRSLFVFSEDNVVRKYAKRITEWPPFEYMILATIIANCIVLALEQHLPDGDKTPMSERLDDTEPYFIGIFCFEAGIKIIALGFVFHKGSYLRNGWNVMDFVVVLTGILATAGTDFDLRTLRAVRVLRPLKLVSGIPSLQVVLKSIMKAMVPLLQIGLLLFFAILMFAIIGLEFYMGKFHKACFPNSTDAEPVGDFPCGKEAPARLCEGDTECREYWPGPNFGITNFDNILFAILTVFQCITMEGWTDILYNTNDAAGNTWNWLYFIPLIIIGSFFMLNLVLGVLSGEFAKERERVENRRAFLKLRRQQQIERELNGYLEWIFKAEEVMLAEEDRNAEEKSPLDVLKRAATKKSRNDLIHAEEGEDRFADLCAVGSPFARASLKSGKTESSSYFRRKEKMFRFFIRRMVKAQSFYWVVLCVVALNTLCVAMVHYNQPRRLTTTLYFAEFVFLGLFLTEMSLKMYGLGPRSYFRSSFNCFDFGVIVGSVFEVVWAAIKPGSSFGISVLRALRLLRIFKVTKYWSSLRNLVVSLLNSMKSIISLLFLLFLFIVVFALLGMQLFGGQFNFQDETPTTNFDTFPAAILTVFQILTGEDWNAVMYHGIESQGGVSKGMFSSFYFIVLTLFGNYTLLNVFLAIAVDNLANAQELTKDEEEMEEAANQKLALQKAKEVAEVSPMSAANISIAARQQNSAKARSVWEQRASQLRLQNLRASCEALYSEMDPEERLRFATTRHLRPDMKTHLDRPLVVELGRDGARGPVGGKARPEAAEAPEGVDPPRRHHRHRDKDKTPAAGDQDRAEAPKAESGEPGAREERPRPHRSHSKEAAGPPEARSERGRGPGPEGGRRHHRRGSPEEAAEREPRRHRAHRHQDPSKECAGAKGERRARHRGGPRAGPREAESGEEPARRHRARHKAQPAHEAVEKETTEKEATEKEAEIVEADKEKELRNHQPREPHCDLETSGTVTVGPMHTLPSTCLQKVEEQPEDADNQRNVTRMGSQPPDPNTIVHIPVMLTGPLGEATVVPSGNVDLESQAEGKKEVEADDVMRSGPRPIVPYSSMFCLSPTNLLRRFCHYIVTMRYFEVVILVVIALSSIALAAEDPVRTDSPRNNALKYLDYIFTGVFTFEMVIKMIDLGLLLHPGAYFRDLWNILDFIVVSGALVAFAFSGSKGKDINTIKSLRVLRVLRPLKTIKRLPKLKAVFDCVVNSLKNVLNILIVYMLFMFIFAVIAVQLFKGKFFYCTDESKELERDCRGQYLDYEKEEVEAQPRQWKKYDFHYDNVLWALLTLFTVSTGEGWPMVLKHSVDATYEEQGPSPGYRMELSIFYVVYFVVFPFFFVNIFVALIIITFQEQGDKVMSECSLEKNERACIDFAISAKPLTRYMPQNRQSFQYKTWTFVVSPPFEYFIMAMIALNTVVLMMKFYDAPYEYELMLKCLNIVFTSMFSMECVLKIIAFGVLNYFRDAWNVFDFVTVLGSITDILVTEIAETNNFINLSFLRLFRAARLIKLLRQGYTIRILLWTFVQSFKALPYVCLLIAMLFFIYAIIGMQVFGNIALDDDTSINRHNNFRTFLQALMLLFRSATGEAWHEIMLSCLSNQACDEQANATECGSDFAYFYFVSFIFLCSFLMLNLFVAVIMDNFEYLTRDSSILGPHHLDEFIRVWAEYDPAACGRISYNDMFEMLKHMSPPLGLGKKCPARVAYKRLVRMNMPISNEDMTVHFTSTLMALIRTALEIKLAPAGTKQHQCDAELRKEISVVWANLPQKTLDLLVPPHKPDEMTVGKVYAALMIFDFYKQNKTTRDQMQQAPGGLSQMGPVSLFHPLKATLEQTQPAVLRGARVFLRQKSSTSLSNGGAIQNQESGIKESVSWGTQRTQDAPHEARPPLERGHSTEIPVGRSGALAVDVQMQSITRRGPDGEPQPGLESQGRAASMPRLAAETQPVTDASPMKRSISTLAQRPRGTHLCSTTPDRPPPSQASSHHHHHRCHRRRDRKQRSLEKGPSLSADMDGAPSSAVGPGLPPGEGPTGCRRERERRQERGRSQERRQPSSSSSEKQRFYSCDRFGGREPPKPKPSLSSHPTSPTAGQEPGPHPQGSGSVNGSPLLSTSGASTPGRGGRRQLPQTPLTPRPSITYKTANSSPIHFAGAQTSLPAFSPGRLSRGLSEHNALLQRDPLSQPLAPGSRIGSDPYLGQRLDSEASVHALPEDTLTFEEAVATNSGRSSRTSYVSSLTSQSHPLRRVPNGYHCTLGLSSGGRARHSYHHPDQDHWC
T1 sequence (P54284 whole entry partner): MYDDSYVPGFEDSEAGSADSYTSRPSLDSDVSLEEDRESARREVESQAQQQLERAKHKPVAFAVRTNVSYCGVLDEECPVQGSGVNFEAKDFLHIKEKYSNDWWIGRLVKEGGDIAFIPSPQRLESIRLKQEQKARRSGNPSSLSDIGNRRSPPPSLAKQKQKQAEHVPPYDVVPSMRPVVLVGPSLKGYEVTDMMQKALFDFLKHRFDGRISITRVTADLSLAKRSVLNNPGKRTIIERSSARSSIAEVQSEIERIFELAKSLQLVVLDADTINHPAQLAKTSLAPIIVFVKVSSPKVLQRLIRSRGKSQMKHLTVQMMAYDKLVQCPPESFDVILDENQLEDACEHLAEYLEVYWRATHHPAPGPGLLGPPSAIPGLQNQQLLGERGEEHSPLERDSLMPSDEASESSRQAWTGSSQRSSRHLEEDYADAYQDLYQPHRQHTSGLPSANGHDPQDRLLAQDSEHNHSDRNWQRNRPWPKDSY
T1 sequence (P54289 25-956 partner limits assumed): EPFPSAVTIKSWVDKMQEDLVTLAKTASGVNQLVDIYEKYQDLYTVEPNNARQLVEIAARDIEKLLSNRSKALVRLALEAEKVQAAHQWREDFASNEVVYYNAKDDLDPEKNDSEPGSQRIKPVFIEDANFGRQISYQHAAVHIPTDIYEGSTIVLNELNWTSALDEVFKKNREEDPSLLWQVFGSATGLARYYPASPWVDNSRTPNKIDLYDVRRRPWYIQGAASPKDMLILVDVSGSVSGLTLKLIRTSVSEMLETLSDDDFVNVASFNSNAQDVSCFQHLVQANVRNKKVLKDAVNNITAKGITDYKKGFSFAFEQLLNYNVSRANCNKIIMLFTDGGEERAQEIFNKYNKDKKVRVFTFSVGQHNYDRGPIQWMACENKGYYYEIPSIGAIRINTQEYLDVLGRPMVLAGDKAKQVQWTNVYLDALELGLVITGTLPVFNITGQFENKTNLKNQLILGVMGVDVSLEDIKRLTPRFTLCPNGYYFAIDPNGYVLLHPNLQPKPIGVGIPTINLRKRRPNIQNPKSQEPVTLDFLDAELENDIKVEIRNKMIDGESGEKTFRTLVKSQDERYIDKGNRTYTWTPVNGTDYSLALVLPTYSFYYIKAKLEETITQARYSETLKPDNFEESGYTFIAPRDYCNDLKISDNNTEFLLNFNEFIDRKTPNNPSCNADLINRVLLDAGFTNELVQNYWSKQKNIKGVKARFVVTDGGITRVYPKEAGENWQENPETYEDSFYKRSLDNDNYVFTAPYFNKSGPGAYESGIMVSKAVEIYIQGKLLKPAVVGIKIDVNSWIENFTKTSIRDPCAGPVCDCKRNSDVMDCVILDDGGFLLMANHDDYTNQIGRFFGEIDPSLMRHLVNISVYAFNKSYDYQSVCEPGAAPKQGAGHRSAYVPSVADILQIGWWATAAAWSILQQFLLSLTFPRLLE
T1 sequence (P54289 957-1103 partner limits assumed): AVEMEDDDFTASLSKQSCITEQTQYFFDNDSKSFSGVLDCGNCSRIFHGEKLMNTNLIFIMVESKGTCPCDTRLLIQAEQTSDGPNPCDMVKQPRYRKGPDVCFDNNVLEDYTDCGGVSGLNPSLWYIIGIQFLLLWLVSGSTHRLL

For `O=C1N(CCC(c2ccccc2)c2ccccc2)CCN1c1ccccc1` [1-(3,3-diphenylpropyl)-3-phenylimidazolidin-2-one], the concentration for half-maximal inhibition (IC50) in assay [1] was 4330 nM; in assay [2] it was 10000 to 20000 nM.
As for `O=c1n(CCCC(c2ccc(F)cc2)c2ccc(F)cc2)c2ccccc2n1Cc1ccccn1` [1-[4,4-Bis(4-fluorophenyl)butyl]-3-(pyridin-2-yl)methyl-1,3-dihydro-benzoimidazol-2-one], the IC50 stood at 810 nM in assay [1] and 4690 nM in assay [2].
For `O=C1N(CCCC(c2ccc(F)cc2)c2ccc(F)cc2)CCN1Cc1ccncc1` [1-[4,4-Bis(4-fluorophenyl)butyl]-3-(pyridin-4-ylmethyl)imidazolidin-2-one], the IC50 in assay [1] stood at 1190 nM; in assay [2] it was 3430 nM.
Consider `O=c1n(CCCC(c2ccc(F)cc2)c2ccc(F)cc2)c2ccccc2n1CCN1CCCCC1` [1-[4,4-Bis(4-fluorophenyl)butyl]-3-[2-(piperidin-1-yl)ethyl]-1,3-dihydro-benzoimidazol-2-one], for which the IC50 in assay [1] is 2150 nM; in assay [2], more than 20000 nM.
In the case of `O=C1NCCN1CCCC(c1ccc(F)cc1)c1ccc(F)cc1` [1-[4,4-Bis(4-fluorophenyl)butyl]-imidazolidin-2-one], the 50% inhibitory concentration (IC50) in assay [1] stood at 3690 nM.
Turning to `O=C1N(CC=Cc2ccccc2)CCN1CCCC(c1ccc(F)cc1)c1ccc(F)cc1` [1-[4,4-bis(4-fluorophenyl)butyl]-3-(3-phenylprop-2-enyl)imidazolidin-2-one], the IC50 came to 1140 nM in assay [1] and 3630 nM in assay [2].
In the case of `O=C1N(CCCC(c2ccc(F)cc2)c2ccc(F)cc2)CCN1CCN1CCCC1` [1-[4,4-bis(4-fluorophenyl)butyl]-3-[2-(pyrrolidin-1-yl)ethyl]imidazolidin-2-one], the results for the 50% inhibitory concentration (IC50) in assay [1] and in assay [2] were 1360 nM and 3560 nM, respectively.
On to `O=C1N(CCCC(c2ccc(F)cc2)c2ccc(F)cc2)CCN1C1CC1` [1-[4,4-bis(4-fluorophenyl)butyl]-3-cyclopropylimidazolidin-2-one], for which the IC50 was 620 nM in assay [1] and 410 nM in assay [2].
With `CN1CCN(CCCC(c2ccc(F)cc2)c2ccc(F)cc2)C1=O` [1-[4,4-bis(4-fluorophenyl)butyl]-3-methylimidazolidin-2-one], the IC50 in assay [1] worked out at 670 nM; in assay [2] it was 790 nM.
For the molecule `O=C(OCc1ccccc1)N1C(=O)N(CCCC(c2ccc(F)cc2)c2ccc(F)cc2)[C@H]2C[C@H]21` [2-[4,4-Bis(4-fluorophenyl)butyl]-4-benzyloxycarbonyl-2,4-diaza-bicyclo[3.1.0]hexan-3-one], the values for the IC50 in assay [1] and in assay [2] were 340 nM and 3290 nM, respectively.

By IC50 is commonly meant the point on the concentration scale where inhibition reaches its midpoint.
